# Laboratory results reported in US4228292A, “N-Substituted benzothiazolines and benzoxazolines and their use as herbicides and plant growth regulants” (Monsanto Company, priority 1978, dated 1980).
# Experiments:
# soybean plants = experiment: plant growth regulating activity on soybean plants; format: in vivo, variety Williams
# Method: A number of soybean plants, variety Williams, were grown from seeds in plastic pots in the greenhouse for a period of one week at which time the plants are thinned to one plant per pot. When the second trifoliate leaf (three weeks) was fully expanded, the plants were treated with a solution of the active ingredient in acetone and water. Aqueous Tween 20 was used as a surfactant.
# When the fifth trifoliate leaf (four to five weeks) was fully expanded, the treated plants were compared with the non-treated control plants and the observations recorded.
# Sorghum = experiment: pre-emergent herbicidal test; format: in vivo; conditions: P; note: ranges in brackets are in %
# Method: (§1) The pre-emergent test was conducted as follows:
# (§2) A good grade of top soil was placed in aluminum pans and compactd to a depth of 0.95 to 1.27 cm. from the top of the pan. On the top of the soil was placed a predetermined number of seeds or vegetative propagules of various plant species. The soil required to level fill the pans after seeding or adding vegetative propagules was weighed into a pan. A known amount of the herbicidal active ingredient applied in a solvent or as a wettable powder and the soil were thoroughly mixed, and used as a cover layer for prepared pans. After treatment the pans were moved into a greenhouse bench where they were watered from below as needed to give adequate moisture for germination and growth.
# (§3) A herbicidal rating code was used to signify the extent of phytotoxicity of each species. The ratings are defined as follows: […]
# Hemp Sesbania = experiment: pre-emergent herbicidal test; format: in vivo; conditions: R; note: ranges in brackets are in %
# Method: as §1, §2, §3
# Sugar Beet = experiment: pre-emergent herbicidal test; format: in vivo; conditions: M; note: ranges in brackets are in %
# Method: as §1, §2, §3
# Rice = experiment: pre-emergent herbicidal test; format: in vivo; conditions: O; note: ranges in brackets are in %
# Method: as §1, §2, §3
# Panicum Spp = experiment: pre-emergent herbicidal test; format: in vivo; conditions: S; note: ranges in brackets are in %
# Method: as §1, §2, §3
# Soybean = experiment: pre-emergent herbicidal test; format: in vivo; conditions: L; note: ranges in brackets are in %
# Method: as §1, §2, §3
# Wild Buckwheat = experiment: pre-emergent herbicidal test; format: in vivo; conditions: Q; note: ranges in brackets are in %
# Method: as §1, §2, §3
# Wheat = experiment: pre-emergent herbicidal test; format: in vivo; conditions: N; note: ranges in brackets are in %
# Method: as §1, §2, §3
# Crabgrass = experiment: pre-emergent herbicidal test; format: in vivo; conditions: T; note: ranges in brackets are in %
# Method: as §1, §2, §3
structure (smiles),measurement,setting,value
COC(=N)C(C)n1c(=O)sc2ccccc21 (stereo not shown) [Compound 32],plant growth regulant observations,soybean plants; 0.112 kg/h,Inhibition of dry weight.
COC(=N)Cn1c(=O)sc2cc(Br)ccc21 [Compound 33],pre-emergent herbicidal rating,"Sorghum; 0.28 kg/h, 2 WAT",0 (0-24)
same,pre-emergent herbicidal rating,"Sorghum; 1.12 kg/h, 2 WAT",0 (0-24)
same,pre-emergent herbicidal rating,"Sorghum; 5.6 kg/h, 4 WAT",0 (0-24)
same,pre-emergent herbicidal rating,"Hemp Sesbania; 0.28 kg/h, 2 WAT",0 (0-24)
same,pre-emergent herbicidal rating,"Hemp Sesbania; 1.12 kg/h, 2 WAT",0 (0-24)
same,pre-emergent herbicidal rating,"Hemp Sesbania; 5.6 kg/h, 4 WAT",0 (0-24)
same,pre-emergent herbicidal rating,"Sugar Beet; 0.28 kg/h, 2 WAT",0 (0-24)
same,pre-emergent herbicidal rating,"Sugar Beet; 1.12 kg/h, 2 WAT",0 (0-24)
same,pre-emergent herbicidal rating,"Sugar Beet; 5.6 kg/h, 4 WAT",1 (25-49)
same,pre-emergent herbicidal rating,"Rice; 0.28 kg/h, 2 WAT",0 (0-24)
same,pre-emergent herbicidal rating,"Rice; 1.12 kg/h, 2 WAT",0 (0-24)
same,pre-emergent herbicidal rating,"Rice; 5.6 kg/h, 4 WAT",0 (0-24)
same,pre-emergent herbicidal rating,"Panicum Spp; 0.28 kg/h, 2 WAT",0 (0-24)
same,pre-emergent herbicidal rating,"Panicum Spp; 1.12 kg/h, 2 WAT",0 (0-24)
same,pre-emergent herbicidal rating,"Panicum Spp; 5.6 kg/h, 4 WAT",0 (0-24)
same,pre-emergent herbicidal rating,"Soybean; 0.28 kg/h, 2 WAT",0 (0-24)
same,pre-emergent herbicidal rating,"Soybean; 1.12 kg/h, 2 WAT",0 (0-24)
same,pre-emergent herbicidal rating,"Soybean; 5.6 kg/h, 4 WAT",1 (25-49)
same,pre-emergent herbicidal rating,"Wild Buckwheat; 0.28 kg/h, 2 WAT",0 (0-24)
same,pre-emergent herbicidal rating,"Wild Buckwheat; 1.12 kg/h, 2 WAT",0 (0-24)
same,pre-emergent herbicidal rating,"Wild Buckwheat; 5.6 kg/h, 4 WAT",1 (25-49)
same,pre-emergent herbicidal rating,"Wheat; 0.28 kg/h, 2 WAT",0 (0-24)
same,pre-emergent herbicidal rating,"Wheat; 1.12 kg/h, 2 WAT",0 (0-24)
same,pre-emergent herbicidal rating,"Wheat; 5.6 kg/h, 4 WAT",0 (0-24)
same,pre-emergent herbicidal rating,"Crabgrass; 0.28 kg/h, 2 WAT",0 (0-24)
same,pre-emergent herbicidal rating,"Crabgrass; 1.12 kg/h, 2 WAT",0 (0-24)
same,pre-emergent herbicidal rating,"Crabgrass; 5.6 kg/h, 4 WAT",0 (0-24)
same,plant growth regulant observations,soybean plants; 0.112 kg/h,Inhibition of dry weight.
COC(=N)C(C)n1c(=O)sc2cc(Br)ccc21 (stereo not shown) [Compound 34],plant growth regulant observations,soybean plants; 0.112 kg/h,Leaf alteration of new growth.
COC(=N)Cn1c(=O)oc2ccccc21 [Compound 35],plant growth regulant observations,soybean plants; 0.112 kg/h,No response.
same,plant growth regulant observations,soybean plants; 0.56 kg/h,No response.
COC(=N)CCn1c(=O)sc2cc(Br)ccc21 [Compound 36],plant growth regulant observations,soybean plants; 0.112 kg/h,Leaf alteration of new growth.
same,plant growth regulant observations,soybean plants; 0.56 kg/h,Leaf alteration of new growth.
